# Entries after “also recorded” stand apart in the source; their conditions may differ.
# Legend:
# PTP1B = system: PTP1B; parameters: method as in PMID 23604820; details: very low IC50 values; cited from earlier work
# [1] = target: T1, Protein tyrosine phosphatase 1B (human recombinant) (Homo sapiens, UniProt P18031); assay: Determination of the inhibition mode (Lineweaver–Burk and Dixon plots); format: biochemical; details: p-NPP substrate; for Ki: Dixon plot; for Inhibition Type: Lineweaver–Burk and Dixon plots
# T1 construct: purchased Biomol International LP, Plymouth Meeting, PA, USA
# T1 sequence (P18031 1-435): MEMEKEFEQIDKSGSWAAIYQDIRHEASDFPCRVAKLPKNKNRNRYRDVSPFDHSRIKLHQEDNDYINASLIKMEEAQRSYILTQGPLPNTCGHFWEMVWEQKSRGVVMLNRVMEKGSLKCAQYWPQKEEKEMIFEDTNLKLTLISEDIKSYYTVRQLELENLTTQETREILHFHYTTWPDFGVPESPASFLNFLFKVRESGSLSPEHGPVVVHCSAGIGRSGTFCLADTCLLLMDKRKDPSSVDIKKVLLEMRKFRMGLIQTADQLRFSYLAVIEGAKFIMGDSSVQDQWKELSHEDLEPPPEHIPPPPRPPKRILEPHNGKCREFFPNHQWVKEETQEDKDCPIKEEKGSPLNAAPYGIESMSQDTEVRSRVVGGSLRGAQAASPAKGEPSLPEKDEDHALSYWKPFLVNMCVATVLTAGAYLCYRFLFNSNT
# Text: The Sigma plot program was used to analyze both the double reciprocal Lineweaver–Burk plot and the Dixon plot by plotting 1/v as a function of the inhibitor (I). […] Table 1 lists the Ki values for these active compounds.
# Victor3 V 1420 Multilabel Plate Counter at an excitation and emission wavelength of 485 nm and 535 nm, […]
# (§1) Protein tyrosine phosphatase 1B (human recombinant) was purchased from Biomol International LP, Plymouth Meeting, PA, USA, and the inhibitory activities of the tested samples were evaluated using the method as described in [31]. Briefly, 0.05−0.1 µg of PTP1B (BIOMOL International L.P., Plymouth Meeting, PA, USA) and 4 mM p-NPP in a buffer containing 1 mMdithiothreitol, 0.1 M NaCl, 1 mM EDTA, and 50 mM citrate (pH 6.0), with or without test compounds, were added as 100 µL of a final volume to each of the 96 wells. After the reaction mixture was incubated at 37 °C for 30 min, 10 M NaOH was added to quench the reaction. PTP1B enzyme activity was determined by the amount of produced p-nitrophenol at 405 nm. […]
# contain the PTP1B enzyme.
# Determination of the Inhibition Mode of Active Compounds
# The Lineweaver–Burk plot and Dixon plot experiments were carried out in the presence and absence of the inhibitors with various concentrations of p-NPP as the substrate. The inhibition modes of the tested compounds were assessed on the basis of their inhibitory effects on the Km ([…]) and Vmax (maximum reaction velocity) of the enzyme, which were determined by the Lineweaver–Burk plot experiment. The Lineweaver–Burk plot is the double reciprocal plot of the enzyme reaction velocity ( V) versus the substrate ( p-NPP) concentration (1/ V versus 1/( p-NPP)).
# (§2) Data are represented as means ± SD of at least three independent experiments performed in triplicated assays and determined by regression analysis. For statistical analysis of the data for single comparison, the significance between means was determined by the Student’s t test. Sigma Plot program version 11.0 was used for analysis of the kinetic data.
# [2] = target: T1, Protein tyrosine phosphatase 1B (human recombinant); assay: PTP1B inhibition assay (p-NPP substrate); format: biochemical; details: read-out: IC50 PTP1B inhibitory activity
# Text: PTP1B dephosphorylates IR and IRS in the insulin signaling pathway as a negative regulator. In the leptin signaling pathway, PTP1B presented the same manner of tyrosine Janus kinase 2. Thus, inhibition of PTP1B activity might improve the IR and IRS, leading to the enhancement of glucose uptake in adipocyte cells. […]
# as §1
# contain the PTP1B enzyme. […]
# as §2
# 3T3-L1 adipocytes = assay: Adipocyte-based measurement of 2-NBDG uptake; format: cell-based
# Text: DM is a metabolic ailment that is categorized by glucose intolerance and deviations of lipid and protein metabolism processes. Previously, 2-NBDG was used as a potential agent to evaluate the action of compounds as insulin mimickers. In our experiment, we examined the activity of the pimarane diterpenes 1–7 on 2-NBDG uptake in the 3T3-L1 adipocytes model. […] Among them, compounds 1, 3, 5, 6, and 7 theoretically stimulated glucose uptake by 1.45–1.51-, 1.56–1.68-, 1.55–1.66-, 1.72–1.83-, and 1.67–1.75-fold of inductions, respectively (Figure 2).
# Figure 2 The action of pimarane diterpenes (1–7) on 2-NBDG uptake. Compounds concentrations were 5 and 10 µM; Insulin (100 nM); Control (DMSO). The glucose uptake effect was expressed as the mean ± standard deviation (SD) of three replicates. Statistical significance was accessed by Duncan’s multiple range tests (* p < 0.01; ** p < 0.05). […]
# Cell Culture and Induction of 3T3-L1 Adipocytes
# 3T3-L1 cells were purchased from American Type Culture Collection (ATCC, Manassas, VA, USA) and grown in DMEM with 10% FCS. To induce differentiation, 3T3-L1 pre-adipocytes were cultured until confluence was reached (0 day), and the culture medium was replaced with a fresh induction medium containing 5 µg/mL insulin, 0.5 mM 3-isobutyl-1-methylxanthine (IBMX), and 1 µM dexamethasone (DEX) […]
# in DMEM with 10% FBS for 2 days. […]
# Adipocyte-Based Measurement of 2-NBDG Uptake
# 3T3-L1 adipocytes grown in black 96-well plates were incubated with each sample for 24 h at 37 °C in a 5% CO2 atmosphere. Subsequently, 250 µM 2-NBDG (dissolved in PBS with 1% BSA) was added to the cells and incubated for a further 30 min. After incubation, cells were washed two times with PBS to remove excess fluorescence in the wells. Then, fluorescence retained by the cells was measured using a PerkinElmer […]
Compound,Ki [1] [µM],Inhibition Type [1],IC50 [2] [µM],PTP1B inhibition (in words) (PTP1B),"2-NBDG uptake, fold of induction (3T3-L1 adipocytes; range over 5 and 10 µM)",other results
"C=C[C@]1(C)C=C2C(=O)C[C@H]3[C@@](C)(CCC[C@@]3(C)C(=O)O)[C@@H]2CC1 [7-oxo-ent-pimara-8(14),15-diene-19-oic acid]",,,,significantly inhibited,,
"C=C[C@]1(C)C=C2C(CC1)[C@]1(C)CCC[C@@](C)(C(=O)O)C1C[C@@H]2O (stereo partly drawn) [7β-hydroxy-ent-pimara-8(14),15-diene-19-oic acid]",,,,significantly inhibited,,
C=CC1(C)CCC2C(O)(CCC3C(C)(CO)CCCC32C)C1 (stereo not drawn) [8α-hydroxy-ent-pimara-15-en-19-ol],,,,significantly inhibited,,
"C=CC1(C)CC(OC(=O)c2ccccc2)C2C(O)(C1=O)C(O)CC1C(C)(C)C(OC(C)=O)C(OC(C)=O)C(OC(=O)c3ccccc3)C12CO (stereo not drawn) [Compound 1, siphonol B]",52.4 ± 0.9,mixed-competitive inhibitor; also recorded: mixed-competitive inhibition,8.18 ± 0.41,,1.45–1.51 fold,
C=C1C[C@@]23CC[C@H]4[C@@](C)(CCC[C@@]4(C)C(=O)O)[C@@H]2CC[C@@H]1C3 [ent-kaur-16-en-19-oic-acid],,,,significantly inhibited,,
"C=C[C@]1(C)C=C2CCC3[C@@](C)(CCC[C@@]3(C)C(=O)O)C2CC1 (stereo partly drawn) [ent-pimara-8(14),15-diene-19-oic acid]",,,,significantly inhibited,,
"C=CC1(C)C=C2CCC3C(C)(CO)CCCC3(C)C2CC1 (stereo not drawn) [ent-pimara-8(14),15-diene-19-ol]",,,,significantly inhibited,,
insulin,,,,,,"2-NBDG uptake, fold of induction (3T3-L1 adipocytes; positive control at 100 nM): 1.55 ± 0.07 fold"

# Continued, in another order:
Ki [1] [µM],Inhibition Type [1],IC50 [2] [µM],Compound,PTP1B inhibition (in words) (PTP1B),"2-NBDG uptake, fold of induction (3T3-L1 adipocytes; range over 5 and 10 µM)",other results
,,24.7 ± 1.12,"C=CC1(C)CC(OC(=O)c2ccccc2)C2C(O)(C1=O)C(O)CC1C(C)(C)C(OC(C)=O)C(OC(C)=O)C(OC(=O)c3ccccc3)C12COC(C)=O (stereo not drawn) [Compound 2, siphonol D]",,1.24–1.33 fold,
75.6 ± 1.7,non-competitive inhibition,9.84 ± 0.33,"C=C[C@@]1(C)C[C@@H](OC(=O)c2ccccc2)[C@H]2[C@](O)(C1=O)[C@H](OC(C)=O)C[C@H]1C(C)(C)[C@H](OC(C)=O)[C@H](O)[C@H](OC(=O)c3ccccc3)[C@@]12C [Compound 3, orthosiphol B]",,1.56–1.68 fold,"2-NBDG uptake, fold of induction (3T3-L1 adipocytes; 5 μM): 1.56 ± 0.09 fold"
,,27.6 ± 2.99,"C=C[C@@]1(C)C[C@@H](OC(=O)c2ccccc2)[C@H]2[C@](O)(C1=O)[C@H](O)C[C@H]1C(C)(C)[C@H](OC(C)=O)[C@H](OC(C)=O)[C@H](OC(=O)c3ccccc3)[C@@]12C [Compound 4, orthosiphol F]",,1.28–1.35 fold,
23.9 ± 1.2,non-competitive inhibition,3.82 ± 0.2,"C=C[C@@]1(C)C[C@@H](O)[C@H]2[C@](O)(C1=O)[C@H](O)C[C@H]1C(C)(C)[C@H](OC(C)=O)[C@H](OC(C)=O)[C@H](OC(=O)c3ccccc3)[C@@]12C [Compound 5, orthosiphol G]",,1.55–1.66 fold,"2-NBDG uptake, fold of induction (3T3-L1 adipocytes; 5 μM): 1.55 ± 0.02 fold"
1.3 ± 0.6,competitive inhibition,0.33 ± 0.07,"C=C[C@@]1(C)CC(=O)[C@H]2[C@](O)(C1=O)[C@H](O)C[C@H]1C(C)(C)[C@H](OC(C)=O)[C@H](OC(C)=O)[C@H](OC(=O)c3ccccc3)[C@@]12C [Compound 6, orthosiphol I]",,1.72–1.83 fold,"2-NBDG uptake, fold of induction (3T3-L1 adipocytes; 5 μM): 1.72 ± 0.11 fold"
5.5 ± 0.1,uncompetitive inhibition,1.6 ± 0.17,"C=CC1(C)CC(=O)C2C(O)(C1=O)C(O)CC1C(C)(C)C(OC(=O)c3ccccc3)C(OC(C)=O)C(OC(=O)c3ccccc3)C12C (stereo not drawn) [Compound 7, orthosiphol N]",,1.67–1.75 fold,"2-NBDG uptake, fold of induction (3T3-L1 adipocytes; 5 μM): 1.67 ± 0.08 fold"
,mixed-competitive inhibitor,,"C[C@H]1[C@H](C)CC[C@]2(C(=O)O)CC[C@]3(C)C(=CC[C@@H]4[C@@]5(C)CC[C@H](O)C(C)(C)[C@@H]5CC[C@]43C)[C@H]12 [Ursolic acid, reference compound]",,,

# — paper PMC7017366, “Glucose Uptake Stimulatory and PTP1B Inhibitory Activities of Pimarane Diterpenes from Orthosiphon stamineus Benth” (Biomolecules, 2019)
